Data as given in US20030013660A1, “Dioxolane analogs for improved inter-cellular delivery” (Shire BioChem Inc., priority 2000, published 2003).
“And” between values parts separate entries of the source, which are not always exact repeats. Equal entries are not always repeated. Where two headings read alike, the source gives them in different places.

Assays:
Assay in all cases: 3H-TdR incorporation at 72 hr (24 hr drug exposure, wash, 48 hr)
SF-268 = assay type: cell-based, Human; conditions: Homo sapiens, SF-268, read-out: IC50 in μM (3H-TdR incorporation at 72 hr) SF-268 24 h, SF-268 Human Central Nervous System Tumor; 24 h drug exposure, 72 hr assay
Experimental: (§1) Exposition of 24 hr to drug, wash, incubated for another 48 hr (total of 72 hr assay)
(§2) (3H-Thymidine Incorporation Assay)

CCRF-CEM = assay type: cell-based; conditions: read-out: IC50 in μM (3H-TdR incorporation at 72 hr) CCRF-CEM 24 h, CCRF-CEM T-cell Leukemia, 72 hr assay
Experimental: as §1, §2

CEM/dCK- = assay type: cell-based; conditions: for IC50: Homo sapiens, CCRF-CEM, read-out: IC50 in μM (3H-TdR incorporation at 72 hr) CEM/dCK- 24 h, CCRF-CEM deoxycytidine kinase-deficient, 24 h drug exposure, 72 hr assay; for Factor* (Resistance Factor = Ratio of dCK- on Wild-type CCRF-CEM): ratio of IC50 CEM/dCK- to IC50 CCRF-CEM
Experimental: as §1, §2

H-460 = assay type: cell-based, Human
Experimental: as §1, §2

MCF-7 = assay type: cell-based, Human
Experimental: as §1, §2

[1] = Homo sapiens, NCI-H460, read-out: IC50 in μM (3H-TdR incorporation at 72 hr) H-460 24 h, H-460 Human Lung Carcinoma, 72 hr assay
[2] = read-out: IC50 in μM (3H-TdR incorporation at 72 hr) H-460 24 h, H-460 Human Lung Carcinoma, 72 hr assay
[3] = Homo sapiens, MCF7, read-out: IC50 in μM (3H-TdR incorporation at 72 hr) MCF-7 24 h, MCF-7 Human Breast Carcinoma, 72 hr assay
[4] = read-out: IC50 in μM (3H-TdR incorporation at 72 hr) MCF-7 24 h, MCF-7 Human Breast Carcinoma, 72 hr assay

| IC50 (SF-268) [µM] | IC50 (CCRF-CEM; Homo sapiens, CCRF-CEM) [µM] | IC50 (CEM/dCK-) [µM] | IC50 (CCRF-CEM) | IC50 (H-460; [1]) [µM] | IC50 (MCF-7; [3]) [µM] | SMILES | IC50 (H-460; [2]) [µM] | IC50 (MCF-7; [4]) [µM] | Factor* (Resistance Factor = Ratio of dCK- on Wild-type CCRF-CEM) (CEM/dCK-) |
| --- | --- | --- | --- | --- | --- | --- | --- | --- | --- |
| 1.1 | 0.076 | > 100 |  |  |  | O=C(Nc1ccn([C@@H]2CO[C@H](CO)O2)c(=O)n1)C12C[C@@H]3C[C@@H](C[C@@H]1C3)C2 (stereo in doubt) [Compound 231, Hexahydro-2,5-Methano-Pentalene-3A-Carboxylic Acid [1-(2-Hydroxymethyl-[1,3]Dioxolan-4-Yl)-2-Oxo-1,2-Dihydro-Pyrimidin-4-Yl]-Amide] |  |  |  |
|  | 31 | > 100 | 22 µM and 20 µM |  |  | O=c1nc(NS(=O)(=O)c2ccc([N+](=O)[O-])cc2)ccn1[C@@H]1CO[C@H](CO)O1 [Compound 168, N-[1-(2-HYDROXYMETHYL- [1,3]DIOXOLAN-4-YL)-2- OXO-1,2-DIHYDRO- PYRIMIDIN-4-YL]-4- NITRO- BENZENESULFONAMIDE] |  |  |  |
|  | 0.0074 |  | 0.0085 µM | 0.014 | 0.019 | O=c1nc(NCNc2ccccc2)ccn1[C@@H]1CO[C@H](CO)O1 [Compound 172, 1-(2-HYDROXYMETHYL- [1,3]DIOXOLAN-4-YL)-4- (PHENYLAMINOMETHYL- AMINO)-1H-PYRIMIDIN-2- ONE] | 0.015 | 0.036 |  |
|  |  |  |  |  |  | Nc1ccn([C@@H]2CO[C@H](COC(=O)c3ccc(C(F)(F)F)cc3)O2)c(=O)n1 [Compound 189, 4-TRIFLUOROMETHYL- BENZOIC ACID 4-(4- AMINO-2-OXO-2H- PYRIMIDIN-1-YL)- [1,3]DIOXOLAN-2-YL METHYL ESTER] | 0.0012 |  | 1333 and 1300 |
| < 0.0001 |  |  |  | < 0.0001 | < 0.0001 | CC(=O)Oc1ccc(COC(=O)Nc2ccn([C@@H]3CO[C@H](CO)O3)c(=O)n2)cc1 [Compound 203, ACETIC ACID 4-[1-(2- HYDROXYMETHYL- [1,3]DIOXOLAN-4-YL)-2- OXO-1,2-DIHYDRO- PYRIMIDIN-4- YLCARBAMOYLOXYMETHYL]- PHENYL ESTER] |  |  |  |
|  |  |  |  |  |  | Nc1ccn([C@@H]2CO[C@H](COC(=O)c3ccc([N+](=O)[O-])cc3)O2)c(=O)n1 [Compound 204, 4-NITRO-BENZOIC ACID 4- (4-AMINO-2-OXO-2H- PYRIMIDIN-1-YL)- [1,3]DIOXOLAN-2-YL METHYL ESTER] | 0.015 |  | 1600 |
| 0.59 |  | > 100 |  | 0.31 | 1.3 | Nc1ccn([C@@H]2CO[C@H](COC(=O)c3ccccc3-c3ccccc3)O2)c(=O)n1 [Compound 209, BIPHENYL-2-CARBOXYLIC ACID 4-(4-AMINO-2-OXO- 2#H!-PYRIMIDIN-1-YL)- [1,3]DIOXOLAN-2-YL METHYL ESTER] |  |  |  |

| SMILES | IC50 (SF-268) [µM] | IC50 (CCRF-CEM; Homo sapiens, CCRF-CEM) [µM] | IC50 (CEM/dCK-) [µM] | IC50 (CCRF-CEM) | IC50 (H-460; [1]) [µM] | IC50 (MCF-7; [3]) [µM] | IC50 (H-460; [2]) [µM] | IC50 (MCF-7; [4]) [µM] | Factor* (Resistance Factor = Ratio of dCK- on Wild-type CCRF-CEM) (CEM/dCK-) |
| --- | --- | --- | --- | --- | --- | --- | --- | --- | --- |
| Nc1ccn([C@@H]2CO[C@H](COC(=O)c3ccc(Cl)c(Cl)c3)O2)c(=O)n1 [Compound 187, 3,4-DICHLORO-BENZOIC ACID 4-(4-AMINO-2-OXO- 2H-PYRIMIDIN-1-YL)- [1,3]DIOXOLAN-2-YL METHYL ESTER] |  |  |  | 0.0017 µM |  |  | 0.0014 | 0.0042 |  |
